{"source": "patent US6794495B1", "about": "“Composition comprising extensin and, optionally, pectic polysaccharides” (New Nordic Danmark APS, priority 1998, dated 2004)", "system": "Tetrahymena thermophila cells", "test": "Oligo-cell experiments: cloning efficiency in synthetic nutrient medium", "assay_type": "cell-based", "excerpt": "The invention was the result of a laboratory test program using in vivo cell signalling model. The application of a nutritionally complete synthetic (NCS) medium in an oligo-cell experimental research program in which cells demise (or eventually have a prolonged lag-phase) was used for gaining scientific information related to determining the effectiveness of pectins and pectin and extensin combinations as biochemical messengers. An additional control was supplemented with cephalin, that activates cells to multiplication. The effect of an activator added to the NCS medium is compared directly to the control that demises. Apparently, any compound or combination of compounds can be examined in light of the question whether it can activate a cell to survive and/or proliferate. From the beginning of the 1980's the effect of biochemical messengers has been examined with cells grown in an NCS medium free of proteins, lipids, and sugars. Signalling applies to unicellular and multicellular organisms, and the idea of NCS media is that a biochemical messenger can be tested for its biological effect on the cells to gain insight in cellular signalling mechanisms. Biochemical messengers are related to the four biological cornerstones of the eukaryotic cell: survival, proliferation, differentiation, and programmed cell death.\nIn oligo-cell experiments, different pectins and combinations of pectins and extensins were examined for their ability to activate Tetrahymena thermophila cells to survival and/or proliferation. The Tetrahymena cell has nutritional requirements similar to those of animals. They contain subcellular organelles such as mitochondria and peroxisomes, which are essential for the development of regulatory mechanisms in cellular metabolism. […]\nCloning efficiencies were determined from cell multiplications in a synthetic nutrient medium without and with supplements. […]"}
{"substance": "cephalin", "values": [{"measurement": "Cloning efficiencies", "setting": "50 mg/L in synthetic nutrient medium, experiments with cell multiplication after 30 hours / total experiments, about two cells in two mL, first experiment", "value": "15/15"}, {"measurement": "Cloning efficiencies", "setting": "50 mg/L in synthetic nutrient medium, experiments with cell multiplication after 30 hours / total experiments, about two cells in two mL, second experiment (sugar beet fiber)", "value": "15/15"}, {"measurement": "Cloning efficiencies", "setting": "controls supplemented with cephalin, evaluated after 30 hours", "value": 92, "unit": "%"}]}
